Measured values taken from ChEMBL document CHEMBL2074034, “Characterization of cloned mouse Na+/taurocholate cotransporting polypeptide by transient expression in COS-7 cells” (Biosci Biotechnol Biochem, 2002).

What was measured:
Assay type in all cases: functional, cell-based
Details in all cases: monkey, cos-7, 72 µM
[1] = target: T1, Hepatic sodium/bile acid cotransporter (Mus musculus, UniProt O08705); assay: TP_TRANSPORTER: inhibition of Taurocholate uptake (Taurocholate: 0.72 uM, CDCA: 72 uM) in Ntcp-expressing COS-7 cells
T1 sequence (O08705 whole entry): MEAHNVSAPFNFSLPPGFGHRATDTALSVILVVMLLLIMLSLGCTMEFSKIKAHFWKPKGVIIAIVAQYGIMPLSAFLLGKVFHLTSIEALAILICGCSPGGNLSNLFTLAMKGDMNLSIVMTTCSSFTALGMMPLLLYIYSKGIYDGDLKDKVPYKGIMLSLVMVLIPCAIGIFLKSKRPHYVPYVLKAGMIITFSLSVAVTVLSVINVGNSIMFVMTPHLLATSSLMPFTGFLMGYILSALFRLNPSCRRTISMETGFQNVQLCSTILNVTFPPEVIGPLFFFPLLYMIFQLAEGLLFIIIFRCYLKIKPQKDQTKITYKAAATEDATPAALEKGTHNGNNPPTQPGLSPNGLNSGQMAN

[2] = target: T1, Hepatic sodium/bile acid cotransporter; assay: TP_TRANSPORTER: inhibition of Taurocholate uptake (Taurocholate: 0.72 uM, Deoxycholate: 72 uM) in Ntcp-expressing COS-7 cells
[3] = target: T1, Hepatic sodium/bile acid cotransporter; assay: TP_TRANSPORTER: inhibition of Taurocholate uptake (Taurocholate: 0.72 uM, GC: 72 uM) in Ntcp-expressing COS-7 cells
[4] = target: T1, Hepatic sodium/bile acid cotransporter; assay: TP_TRANSPORTER: inhibition of Taurocholate uptake (Taurocholate: 0.72 uM, Lithocholate: 72 uM) in Ntcp-expressing COS-7 cells

C[C@H](CCC(=O)O)[C@H]1CC[C@H]2[C@@H]3[C@H](O)C[C@@H]4C[C@H](O)CC[C@]4(C)[C@H]3CC[C@]12C [CHENODIOL]
Activity [1]: inhibitor [(at a rough estimate) 20 % of control]

C[C@H](CCC(=O)O)[C@H]1CC[C@H]2[C@@H]3CC[C@@H]4C[C@H](O)CC[C@]4(C)[C@H]3C[C@H](O)[C@]12C [DEOXYCHOLIC ACID]
Activity [2]: inhibitor [(at a rough estimate) 20 % of control]

C[C@H](CCC(=O)NCC(=O)O)[C@H]1CC[C@H]2[C@@H]3[C@H](O)C[C@@H]4C[C@H](O)CC[C@]4(C)[C@H]3C[C@H](O)[C@]12C [GLYCOCHOLIC ACID]
Activity [3]: inhibitor [(at a rough estimate) 40 % of control]

C[C@H](CCC(=O)O)[C@H]1CC[C@H]2[C@@H]3CC[C@@H]4C[C@H](O)CC[C@]4(C)[C@H]3CC[C@]12C [LITHOCHOLIC ACID]
Activity [4]: inhibitor [(at a rough estimate) 5 % of control]
